Consider 47 compounds from patent US11931343B2 (ARCUS BIOSCIENCES, INC., priority 2018, dated 2024).

The experiment deals with T1, human CD73 (Homo sapiens, UniProt P21589).
T1 sequence (P21589 27-549): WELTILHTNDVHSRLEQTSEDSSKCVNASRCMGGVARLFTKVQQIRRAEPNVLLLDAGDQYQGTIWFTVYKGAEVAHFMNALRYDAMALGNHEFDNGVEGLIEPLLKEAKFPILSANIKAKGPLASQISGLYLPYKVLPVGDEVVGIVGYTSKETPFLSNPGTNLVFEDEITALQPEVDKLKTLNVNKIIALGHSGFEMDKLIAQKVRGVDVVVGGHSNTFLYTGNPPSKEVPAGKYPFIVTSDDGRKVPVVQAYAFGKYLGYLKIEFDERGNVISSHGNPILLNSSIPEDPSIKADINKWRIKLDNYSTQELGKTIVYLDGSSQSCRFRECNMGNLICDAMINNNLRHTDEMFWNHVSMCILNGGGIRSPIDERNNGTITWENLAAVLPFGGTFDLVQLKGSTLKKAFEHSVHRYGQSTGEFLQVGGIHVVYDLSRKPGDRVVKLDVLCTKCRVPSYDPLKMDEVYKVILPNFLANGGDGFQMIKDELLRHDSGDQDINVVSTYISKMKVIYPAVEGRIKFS
Put plainly: Inhibition of Ecto-5′-nucleotidase (CD73) activity in CHO-CD73 cells, phosphate release from AMP. It is filed as cell-based. Conditions: CHO-K1 cells stably transfected with human CD73; 25 μM AMP; 50 minutes, 37° C.; read-out: Potency: CD73 IC50.

The term IC50 denotes the point on the concentration scale where inhibition reaches its midpoint. Regarding `O=c1[nH]c2ccc(-n3nnc4cnc(-c5ccnn5Cc5ccc(F)cn5)cc43)cc2[nH]1` [Example 189], the IC50 lay within 100 to 1000 nM.
Under `O=c1[nH]c2ccc(-n3ncc4ncc(-c5ccnn5Cc5ccc(Cl)cc5Cl)cc43)cc2[nH]1` [Example 190] stands 100 to 1000 nM; under `O=c1[nH]c2ccc(-n3nnc4c(F)cc(-c5ccnn5Cc5ccc(Cl)cc5F)cc43)cc2[nH]1` [Example 191], 100 to 1000 nM.
Next, `O=c1[nH]c2ccc(-n3nnc4c(F)cc(-c5ccnn5Cc5ccc(Cl)c(F)c5)cc43)cc2[nH]1` [Example 192]: 100 to 1000 nM; `O=c1[nH]c2ccc(-n3nnc4cnc(-c5ccnn5Cc5ccc(Cl)cc5F)cc43)cc2[nH]1` [Example 193]: 100 to 1000 nM.
Under `O=c1[nH]c2ccc(-n3nnc4cnc(-c5ccnn5Cc5ccc(Cl)c(F)c5)cc43)cc2[nH]1` [Example 194] stands 100 to 1000 nM; under `O=c1[nH]c2ccc(-n3nnc4c(F)cc(-c5ccnn5Cc5ccc6cn[nH]c6c5)cc43)cc2[nH]1` [Example 195], 100 to 1000 nM.
Take `O=c1[nH]c2ccc(-n3nnc4cnc(-c5ccnn5-c5cccc(F)c5)cc43)cc2[nH]1` [Example 196]: the IC50 was greater than 1000 nM.
Next, `N#Cc1cccc(-n2nccc2-c2cc3c(cn2)nnn3-c2ccc3[nH]c(=O)[nH]c3c2)c1` [Example 197]: greater than 1000 nM.
Under `N#Cc1cccc(-n2nccc2-c2cc(F)c3nnn(-c4ccc5[nH]c(=O)[nH]c5c4)c3c2)c1` [Example 198] stands greater than 1000 nM.
Under `O=c1[nH]c2ccc(-n3nnc4c(Cl)cc(-c5ccnn5Cc5ccc(F)cn5)cc43)cc2[nH]1` [Example 200] stands 100 to 1000 nM; under `O=c1[nH]c2ccc(-n3nnc4c(F)cc(-c5ccnn5Cc5ccccn5)cc43)cc2[nH]1` [Example 201], greater than 1000 nM.
In the case of `O=c1[nH]c2ccc(-n3nnc4c(F)cc(-c5ccnn5CCOc5ccccc5)cc43)cc2[nH]1` [Example 202], the concentration for half-maximal inhibition (IC50) is greater than 1000 nM.
Under `O=c1[nH]c2ccc(-n3nnc4ccc(-c5ccnn5Cc5ccc(F)cn5)cc43)cc2[nH]1` [Example 203] stands 100 to 1000 nM; under `N#Cc1ccc(Cn2nccc2-c2ccc3nnn(-c4ccc5[nH]c(=O)[nH]c5c4)c3c2)nc1` [Example 204], 100 to 1000 nM.
Next, `O=c1[nH]c2ccc(-n3nnc4c(F)cc(-c5ccnn5CCc5ccc(Cl)cc5)cc43)cc2[nH]1` [Example 205]: greater than 1000 nM; `O=c1[nH]c2ccc(-n3nnc4c(F)cc(-c5ccnn5Cc5cccnn5)cc43)cc2[nH]1` [Example 206]: greater than 1000 nM.
Next, `Cc1ccc(Cn2nccc2-c2cc(Cl)c3nnn(-c4ccc5[nH]c(=O)[nH]c5c4)c3c2)cc1F` [Example 207]: 100 to 1000 nM; `Cc1cc(F)ccc1Cn1nccc1-c1cc(Cl)c2nnn(-c3ccc4[nH]c(=O)[nH]c4c3)c2c1` [Example 208]: 100 to 1000 nM; `O=c1[nH]c2ccc(-n3nnc4c(F)cc(-c5ccnn5Cc5ncccn5)cc43)cc2[nH]1` [Example 209]: greater than 1000 nM.
In the case of `CS(=O)(=O)c1cc(Cl)ccc1Cn1nccc1-c1cc(F)c2nnn(-c3ccc4[nH]c(=O)[nH]c4c3)c2c1` [Example 210], the IC50 lay in the range of 100 to 1000 nM.
Next, `N#Cc1ccc(Cn2nccc2-c2cc(F)c3nnn(-c4ccc5[nH]c(=O)[nH]c5c4)c3c2)c(C#N)c1` [Example 211]: 100 to 1000 nM; `O=c1[nH]c2ccc(-n3nnc4c(F)cc(-c5ccnn5Cc5ccncn5)cc43)cc2[nH]1` [Example 212]: greater than 1000 nM.
As to `O=c1[nH]c2ccc(-n3nnc4c(Cl)cc(-c5ccnn5-c5cccc6cccnc56)cc43)cc2[nH]1` [Example 213], the IC50 is greater than 1000 nM.
Under `N#Cc1ccccc1Cn1nccc1-c1cc(F)c2nnn(-c3ccc4[nH]c(=O)[nH]c4c3)c2c1` [Example 214] stands greater than 1000 nM; under `O=c1[nH]c2ccc(-n3nnc4c(F)cc(-c5ccnn5CCc5cccc(Cl)c5)cc43)cc2[nH]1` [Example 215], greater than 1000 nM; under `Cc1cccc(-n2nccc2-c2cc(F)c3nnn(-c4ccc5[nH]c(=O)[nH]c5c4)c3c2)c1` [Example 216], greater than 1000 nM.
Next, `Cc1cccc(-n2nccc2-c2cc(Cl)c3nnn(-c4ccc5[nH]c(=O)[nH]c5c4)c3c2)c1` [Example 217]: 100 to 1000 nM; `N#Cc1ccc(Cn2nccc2-c2cnc3c(N)nn(-c4ccc5cn[nH]c5c4)c3c2)cc1` [Example 218]: 100 to 1000 nM.
Regarding `N#Cc1ccc(Cn2nccc2-c2cnc3c(N)nn(-c4ccc5[nH]c(=O)[nH]c5c4)c3c2)cc1` [Example 219], the IC50 fell in the range of 100 to 1000 nM.
Under `COCc1ccc(Cn2nccc2-c2cc(F)c3nnn(-c4ccc5[nH]c(=O)[nH]c5c4)c3c2)cc1` [Example 220] stands greater than 1000 nM; under `O=c1[nH]c2ccc(-n3nnc4c(F)cc(-c5ccnn5CCc5ccccc5Cl)cc43)cc2[nH]1` [Example 221], greater than 1000 nM; under `O=c1[nH]c2ccc(-n3nnc4c(Cl)cc(-c5ccnn5-c5cccc(C(F)(F)F)c5)cc43)cc2[nH]1` [Example 222], 100 to 1000 nM.
Under `O=c1[nH]c2ccc(-n3nnc4c(F)cc(-c5ccnn5Cc5ccc6[nH]ncc6c5)cc43)cc2[nH]1` [Example 223] stands 100 to 1000 nM; under `Cc1ccc(Cn2nccc2-c2cc(Cl)c3nnn(-c4ccc5[nH]c(=O)[nH]c5c4)c3c2)c(F)c1` [Example 224], less than 100 nM.
As to `Cc1cc(Cl)cnc1Cn1nccc1-c1cc(Cl)c2nnn(-c3ccc4[nH]c(=O)[nH]c4c3)c2c1` [Example 225], the IC50 lay in the range of 100 to 1000 nM.
For `Cc1cc(C)cc(-n2nccc2-c2cc(F)c3nnn(-c4ccc5[nH]c(=O)[nH]c5c4)c3c2)c1` [Example 226], the IC50 was 100 to 1000 nM.
Consider `O=c1[nH]c2ccc(-n3nnc4c(F)cc(-c5ccnn5-c5cc(Cl)cc(Cl)c5)cc43)cc2[nH]1` [Example 227], for which the IC50 lay in the range of 100 to 1000 nM.
Next, `N#Cc1ccc(Cn2nccc2-c2cc(Cl)c3nnn(-c4ccc5[nH]c(=O)[nH]c5c4)c3c2)c(F)c1` [Example 228]: less than 100 nM; `O=c1[nH]c2ccc(-n3nnc4c(F)cc(-c5ccnn5Cc5cccc6c5OC(F)(F)O6)cc43)cc2[nH]1` [Example 229]: greater than 1000 nM; `O=c1[nH]c2ccc(-n3nnc4c(Cl)cc(-c5ccnn5Cc5ccncc5Cl)cc43)cc2[nH]1` [Example 230]: 100 to 1000 nM.
Turning to `O=c1[nH]c2ccc(-n3nnc4c(F)cc(-c5ccnn5Cc5ccc(Cl)cc5)cc43)cc2[nH]1` [Example 231], the IC50 lay in the range of 100 to 1000 nM.
Next, `N#Cc1ccc(Cn2nccc2-c2cc(F)c3nnn(-c4ccc5[nH]c(=O)[nH]c5c4)c3c2)c(N2CCCC2=O)c1` [Example 232]: 100 to 1000 nM; `O=c1[nH]c2ccc(-n3nnc4c(F)cc(-c5ccnn5Cc5ccc6c(c5)OC(F)(F)O6)cc43)cc2[nH]1` [Example 233]: greater than 1000 nM.
Under `Cc1ccc(Cn2nccc2-c2cc(Cl)c3nnn(-c4ccc5[nH]c(=O)[nH]c5c4)c3c2)c(Cl)c1` [Example 234] stands 100 to 1000 nM.
Consider `N#Cc1ccc(Cn2nccc2-c2cc(F)c3nnn(-c4ccc5[nH]c(=O)[nH]c5c4)c3c2)c(Cl)c1` [Example 235], for which the 50% inhibitory concentration (IC50) was less than 100 nM.
Regarding `COc1cc(F)ccc1Cn1nccc1-c1cc(F)c2nnn(-c3ccc4[nH]c(=O)[nH]c4c3)c2c1` [Example 236], the IC50 was greater than 1000 nM.
